# Source: US20210106550A1, “COMPOSITIONS FOR PREVENTING OR TREATING COGNITIVE IMPAIRMENT-RELATED DISEASE COMPRISING MUMEFURAL” (KOREA INSTITUTE OF ORIENTAL MEDICINE, priority 2018, published 2021)
# How the values were obtained:
# [1] = tested on: ChAT, VAChT, and AChE proteins; assay: western blot of ChAT, VAChT, and AChE proteins in hippocampus; assay type: in vivo; conditions: compared with the negative control; FIGS. 7A, 7B
# Procedure: (§1) Specifically, 12-week-old Wister rats (350 g to 380 g) were used for the experiments. After obtaining the experimental animals, appearance was visually inspected and then normal symptoms were observed during a 7-day acclimation period. Healthy animals were selected therefrom and assigned to groups by a random method according to body weight ranges, and then experiments were performed. During the acclimation and experiment, a constant breeding environment was maintained under the conditions of a temperature of 23±3° C., a relative humidity of 50±10%, a ventilation frequency of 12 times to 16 times per hour, a 12-hour light-dark cycle (light on at 7:00, light off at 19:00), and an intensity of illumination of 150 Lx to 300 Lx. Experiments were performed using sterilized instruments, and the rats were allowed free access to tap water and a solid feed (PMI nutrition, USA) for 24 hours.
# In order to construct a vascular dementia-mimic animal model, chronic cerebral hypoperfusion was induced by bilateral common carotid artery occlusion (2VO, hereinafter referred to as “brain damage (BCCA0)”) (Wakita et al., 1994). The rats were anesthetized with 4% isoflurane, and the anesthesia was maintained by 1.5% isoflurane during the operation. The central neck was incised to expose the bilateral common carotid artery carefully so as not to cause damage to the vagal nerve. Ligation was performed twice with No. 3 silk, thereby constructing an animal model in which dementia was induced by brain damage.
# After 21 days from the BCCA0 operation, the Wistar rats were orally administered with mumefural for 42 days. The rats were divided into 5 groups listed in Table 1 below, and controls were orally administered with saline. Different concentrations of mumefural were set in the oral administration as low concentration (20 mg/kg), medium concentration (40 mg/kg), and high concentration (80 mg/kg).
# [2] = tested on: AChE; assay: enzyme-linked immunosorbent assay of AChE activity in hippocampus; assay type: in vivo; conditions: compared with the negative control; FIG. 8
# Procedure: as §1
# In order to construct a vascular dementia-mimic animal model, chronic cerebral hypoperfusion was induced by bilateral common carotid artery occlusion (2VO, hereinafter referred to as “brain damage (BCCA0)”) (Wakita et al., 1994). The rats were anesthetized with 4% isoflurane, and the anesthesia was maintained by 1.5% isoflurane during the operation. The central neck was incised to expose the bilateral common carotid artery carefully so as not to cause damage to the vagal nerve. […]
# [3] = tested on: microglia; assay: immunohistostaining of lba-1 (microglia) in hippocampus and white matter; assay type: in vivo, Wistar rats; conditions: compared with the negative control
# Procedure: as §1, with “hours. […]” for “hours.”
# In order to investigate effects of mumefural on normalization of damaged hippocampus and corpus callosum of white matter in the dementia-mimic animal model, mumefural was administered in the same manner as in Example 1, and then microglia and astrocytes were detected in the hippocampus and white matter to identify gliosis. […]
structure (smiles),measurement,setting,value
O=Cc1ccc(COC(=O)CC(O)(CC(=O)O)C(=O)O)o1 (stereo not drawn) [mumefural],expression level of AChE protein in the hippocampus,[1],decreased
same,expression level of ChAT protein in the hippocampus,[1],increased
same,expression level of VAChT protein in the hippocampus,[1],increased
same,activity of AChE in the hippocampus,[2],decreased
same,numbers of microglia (lba-1 positive cells) in the hippocampus,"[3]; FIGS. 15A, 15B",significantly decreased
same,numbers of microglia (lba-1 positive cells) in the white matter,"[3]; FIGS. 15C, 15D",significantly decreased
